Columns and labels:
Format in all cases: in vivo, human
CFTR = assay: Transepithelial potential difference (TEPD) chloride conductance, Phase 2 study in nonsense-mutation-mediated cystic fibrosis
Experimental: The measurement of transepithelial potential difference (TEPD), also known as nasal potential difference, provides a sensitive evaluation of sodium and chloride transport directly in secretory epithelial cells via assessment of transepithelial bioelectric properties (Knowles et al., 1981, N. Engl. J. Med. 305(25):1489-95; Knowles et al., 1995, Hum. Gene Ther. 6:445). TEPD is performed in each nostril using standardized techniques (Standaert et al., 2004, Ped. Pulm. 37:385-92). In the procedure, a small plastic catheter is used to assess electrical differences across the outer cell membrane of nasal mucosa cells in the nostril. TEPD values are expressed in millivolts, or mV. A chloride conductance equal to or more electrically negative than −5.0 mV is generally considered to be in the normal range. […] TEPD assessments can also be made on rectal epithelial cells and lower respiratory epithelial cells. Because of the role of the CFTR protein in transporting chloride ions across cell membranes, and because of the absence of this protein, cystic fibrosis patients have an abnormal TEPD chloride conductance. As an endpoint, TEPD has the advantage that it can detect chloride transport changes that are a quantitative integration of the presence, functional activity, and apical location of the CFTR in airway cells. Furthermore, it is a direct measure of CFTR activity that is not likely to be affected by supportive or palliative treatments for CF (with the possible exception of systemically administered aminoglycoside antibiotics). Of importance is evidence that TEPD values can correlate with the degree of pulmonary dysfunction and radiographic abnormality (Ho et al., 1997, Eur. Respir. J. 10(9):2018-22; Fajac et al., 1998, Eur. Respir. J. 12(6):1295-300; Sermet-Gaudelus et al., 2005, Am. J. Respit. Crit. Care Med. 171(9):1026-1031). […] Under baseline conditions, TEPD-assessed chloride channel activity is very unlikely to normalize spontaneously in patients with CF; any observed improvements in TEPD-assessed chloride channel activity are expected to specifically denote pharmacological activity of CFTR-correcting therapies. Accordingly, it has become the primary endpoint in Phase 1-2 pharmacological and gene replacement studies aimed at correcting CFTR dysfunction (Peckham et al., 1995, AJ. Clin Sci (London). 89(3):277-84; Wilschanski et al., 2003, N. Engl. J. Med. 349(15):1433-41).
3-[5-(2-Fluoro-phenyl)-[1,2,4]oxadiazol-3-yl]-benzoic acid was provided in a formulation described herein.
Clinical endpoints were evaluated using the procedures set forth above. TEPD measurements were made prior to treatment and on days 14 and 28 of Cycle 1 and Cycle 2. Nasal mucosal curettage was collected from each nostril of each patient prior to treatment and on days 14 and 28 of Cycle 1 and Cycle 2. Pulmonary tests, including FEV1, FVC and MEF25-75, were measured prior to treatment, on day −1 of Cycle 2, on day 13 or 14 of Cycle 1 and day 13 or 14 of Cycle 2 in the study being conducted in Israel and the same parameters were measured prior to treatment and on day 13 or 14 of Cycle 2 in the study being conducted in the United States.
This is the average of the changes from the beginning to the end of the treatment period in TEPD chloride conductance within each study participant. For example, if the changes in TEPD chloride conductance within each of three participants were −7.0 mV, −2.0 mV and −9.0 mV, the mean change in TEPD chloride conductance among these participants would be −6.0 mV.
For purposes of the trials, a chloride conductance response is defined as a TEPD chloride conductance improvement of at least −5 mV. For example, in a patient with a TEPD chloride conductance value of +1.0 my at baseline and a TEPD chloride conductance value of −6.0 mV at the end of treatment, the TEPD chloride conductance improvement would be −7.0 mV, representing a chloride conductance response. […]

[1] = Safety and compliance, additional DMD Phase 2 study (26 boys)
Experimental: An additional Phase 2 study was carried out as follows to evaluate 3-[5-(2-fluoro-phenyl)-[1,2,4]oxadiazol-3-yl]-benzoic acid safety, compliance, PK, effects on full-length muscle dystrophin protein expression, and clinical activity in patients with nonsense-mutation-mediated DMD.
(§1) 3-[5-(2-fluoro-phenyl)-[1,2,4]oxadiazol-3-yl]-benzoic acid was administered orally for 28 days at dose levels of 4, 4, 8 mg/kg (low dose); 10, 10, 20 mg/kg (mid dose); and 20, 20, 40 mg/kg (high dose) after breakfast, lunch, and dinner, respectively. 26 boys (ages: 5-13 years; stop codons: 15 UGA, 6 UAG, 5 UAA; baseline serum CK: 8,645-49,500 IU; steroid use: 19/26) completed 3-[5-(2-fluoro-phenyl)-[1,2,4]oxadiazol-3-yl]-benzoic acid at the low (n=6) or mid (n=20) dose levels. […] Compliance was >98% for both dose levels. Day 1 and Day 28 PK indicate stable plasma exposures over time; however, exposures were lower than in 3-[5-(2-fluoro-phenyl)-[1,2,4]oxadiazol-3-yl]-benzoic acid-treated healthy adult volunteers and cystic fibrosis patients. […] Relative to baseline, post-treatment increases in in vivo dystrophin expression occurred in 4/6 (67%) (90% CI 27-94%) and 10/20 (50%) (90% C1-30-70%) boys at low and mid doses, respectively.

[2] = Plasma exposure, additional DMD Phase 2 study
Experimental: as §1
3-[5-(2-fluoro-phenyl)[1,2,4]oxadiazol-3-yl]-benzoic acid safely induces full-length dystrophin expression in vitro and in vivo and decreases serum CK levels in boys with nonsense-mutation-mediated DMD. […] Evaluation at the high dose level in 12 additional boys is ongoing.

[3] = Higher dose level 10, 10, 20 mg/kg TID oral 14 days, 15 CF patients
[4] = Lower dose level 4, 4, 8 mg/kg TID oral 14 days, 15 CF patients

With `O=C(O)c1cccc(-c2noc(-c3ccccc3F)n2)c1` [3-[5-(2-fluoro-phenyl)-[1,2,4]oxadiazol-3-yl]-benzoic acid] the “TEPD chloride conductance in patients with different types of nonsense mutations within the CFTR gene” value (CFTR; 15 CF patients) was “Improvements in TEPD chloride conductance”, the “Mean change in TEPD chloride conductance: Best of nostrils” value (CFTR; [3]) was −6.4 mV and the “Mean change in TEPD chloride conductance: Mean of both nostrils” value (CFTR; [3]) was −4.4 mV. For the same compound, the “Mean change in TEPD chloride conductance: Best of nostrils” value (CFTR; [4]) was −9.0 mV, the “Mean change in TEPD chloride conductance: Mean of both nostrils” value (CFTR; [4]) was −6.7 mV and the “Treatment effects at the lower and the higher dose levels (TEPD chloride conductance)” value (CFTR; lower 4, 4, 8 mg/kg versus higher 10, 10, 20 mg/kg) was “not statistically significant”. For the same compound, the “Severity of adverse events and laboratory abnormalities” value ([1]; 26 boys, low (n=6) or mid (n=20) dose, 28 days oral) was “mild-moderate”, the “Dose relation of adverse events and laboratory abnormalities” value ([1]; low 4, 4, 8 mg/kg versus mid 10, 10, 20 mg/kg) was “no dose-related changes in frequency or severity” and the “Plasma exposures over time” value ([2]; Day 1 and Day 28 PK) was “stable”. The “Plasma exposures relative to treated healthy adult volunteers and cystic fibrosis patients” value ([2]; boys with DMD) was “lower” and the “Plasma exposures relative to those associated with maximal preclinical activity” value ([2]; low and mid dose levels) was “did not achieve plasma exposures associated with maximal preclinical activity”.

— patent US9289398B2, “Methods for the production of functional protein from DNA having a nonsense mutation and the treatment of disorders associated therewith” (PTC Therapeutics, Inc., priority 2006, dated 2016)
